Test results reported in ChEMBL document CHEMBL1140492, “Synthesis and inhibitory activity of 4-alkynyl and 4-alkenylquinazolines: identification of new scaffolds for potent EGFR tyrosine kinase inhibitors” (Bioorg Med Chem Lett, 2007).

Target: Epidermal growth factor receptor (Homo sapiens, UniProt P00533)
Test: Inhibition of partially purified EGFR tyrosine kinase from human A431 cells

Sequence of Epidermal growth factor receptor (P00533 whole entry): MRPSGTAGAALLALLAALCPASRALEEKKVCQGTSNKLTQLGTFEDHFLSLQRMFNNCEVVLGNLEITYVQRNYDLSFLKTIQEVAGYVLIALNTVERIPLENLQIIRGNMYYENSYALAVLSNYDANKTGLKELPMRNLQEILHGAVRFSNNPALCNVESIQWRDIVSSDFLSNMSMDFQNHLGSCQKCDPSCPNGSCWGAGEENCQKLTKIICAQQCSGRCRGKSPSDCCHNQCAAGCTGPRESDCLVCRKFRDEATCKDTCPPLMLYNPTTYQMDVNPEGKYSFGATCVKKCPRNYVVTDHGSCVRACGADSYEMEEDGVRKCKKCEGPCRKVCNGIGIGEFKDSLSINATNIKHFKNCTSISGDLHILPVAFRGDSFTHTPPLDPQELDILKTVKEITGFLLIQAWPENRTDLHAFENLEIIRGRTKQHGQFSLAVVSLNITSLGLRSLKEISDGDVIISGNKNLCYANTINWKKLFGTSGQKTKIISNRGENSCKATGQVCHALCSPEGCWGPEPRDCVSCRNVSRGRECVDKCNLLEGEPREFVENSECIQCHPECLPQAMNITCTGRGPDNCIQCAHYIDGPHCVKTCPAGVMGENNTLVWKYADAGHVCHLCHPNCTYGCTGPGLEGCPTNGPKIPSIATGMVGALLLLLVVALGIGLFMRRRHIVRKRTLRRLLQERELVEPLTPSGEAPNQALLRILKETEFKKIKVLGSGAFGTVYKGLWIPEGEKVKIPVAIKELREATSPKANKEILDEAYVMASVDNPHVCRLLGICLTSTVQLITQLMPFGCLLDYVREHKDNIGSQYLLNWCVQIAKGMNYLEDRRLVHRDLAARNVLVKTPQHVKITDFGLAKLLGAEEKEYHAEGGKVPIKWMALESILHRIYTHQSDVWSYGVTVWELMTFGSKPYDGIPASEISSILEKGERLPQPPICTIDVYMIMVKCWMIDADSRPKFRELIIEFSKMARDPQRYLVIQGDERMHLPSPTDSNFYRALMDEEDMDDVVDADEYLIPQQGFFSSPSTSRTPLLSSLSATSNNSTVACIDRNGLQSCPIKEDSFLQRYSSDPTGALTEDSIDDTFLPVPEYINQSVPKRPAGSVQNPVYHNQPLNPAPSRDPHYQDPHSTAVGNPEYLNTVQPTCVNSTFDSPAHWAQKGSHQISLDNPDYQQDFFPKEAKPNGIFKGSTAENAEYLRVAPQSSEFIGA

SMILES | IC50 [nM]
COc1cc2ncnc(/C=C/CCc3ccccc3)c2cc1OC | 4
COc1cc2ncnc(C#Cc3ccccc3-c3ccccc3)c2cc1OC | 26
CCOc1cc2ncnc(/C=C/c3ccccc3)c2cc1OCC | 15
CCOc1cc2ncnc(/C=C/CCCc3ccccc3)c2cc1OCC | 140
CCOc1cc2ncnc(C#Cc3[nH]ccc3-c3ccccc3)c2cc1OCC | 10
CCOc1cc2ncnc(C#Cc3c[nH]nc3-c3ccc(F)cc3)c2cc1OCC | 1.8
CCOc1cc2ncnc(C#C[C@](C)(Cc3ccccc3)N3CCC(C(=O)O)CC3)c2cc1OCC | 662
CCN(CC)[C@@](C)(C#Cc1ncnc2cc(OC)c(OC)cc12)Cc1ccncc1 | 200
CCN(CC)[C@@](C)(C#Cc1ncnc2cc(OC)c(OC)cc12)CC1CCCCC1 | 1100
CCOc1cc2ncnc(/C=C/CCc3ccccc3)c2cc1OCC | 5
CCOc1cc2ncnc(C#Cc3nccn3-c3ccccc3)c2cc1OCC | 12
CCOc1cc2ncnc(C#C[C@@](C)(Cc3ccccc3)N3CCC(C(=O)O)CC3)c2cc1OCC | 4.2
CCOc1cc2ncnc(C#CC(C)(Cc3ccccc3)N3CCC(C(=O)O)CC3)c2cc1OCC (racemic) | 11.7

Next, values leading:

IC50 [nM] | SMILES
5600 | COc1cc2ncnc(C#Cc3ccccc3)c2cc1OC
14 | COc1cc2ncnc(C#CCCc3ccccc3)c2cc1OC
15 | COc1cc2ncnc(C#CCOc3ccccc3)c2cc1OC
80 | COc1cc2ncnc(C#CC(C)(C)N(C)c3ccccc3)c2cc1OC
33 | COc1cc2ncnc(C#C[C@@](C)(Cc3ccccc3)N3CCC(C(=O)O)CC3)c2cc1OC
3 | CCN(CC)[C@@](C)(C#Cc1ncnc2cc(OC)c(OC)cc12)Cc1ccccc1
7300 | CCN(CC)[C@@](C)(C#Cc1ncnc2cc(OC)c(OC)cc12)c1ccccc1
1200 | CCN(CC)[C@@](C)(C#Cc1ncnc2cc(OC)c(OC)cc12)CCc1ccccc1
130 | CCN(CC)[C@@](C)(CCc1ncnc2cc(OC)c(OC)cc12)Cc1ccccc1
13 | COc1cc2ncnc(C#CC(C)(C)Cc3ccccc3)c2cc1OC
